# In patent US11040028B2, “Penicinotam derivative, preparation method and use thereof” (OCEAN UNIVERSITY OF CHINA, priority 2017, dated 2021):
# Key:
# Type in all cases: cell-based
# [1] = tested on: human dermal fibroblasts CCC-ESF-1; assay: Anti-fibrosis activity test: inhibition of proliferation of human dermal fibroblasts CCC-ESF-1 (CCK-8); conditions: Fibroblast
# Summary of the method: (§1)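 Using CCK-8 colorimetry (450 nm), the study assessed growth inhibition after 48 h compound exposure; plating density was 2×10^4 cells/mL with 24 h attachment beforehand. IC50 was calculated from (1−Ai/Ao)×100%.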
# [2] = tested on: mouse macrophages (RAW264.7); assay: Lipopolysaccharide-induced NO secretion in macrophages (Griess); conditions: Mus musculus, RAW264.7, 24 h, RAW264.7, LPS 1 μg/ml, a/b isomers given as first/second symbol, read-out: IC50 (μM), inhibition of lipopolysaccharide-induced NO secretion in macrophages
# Summary of the method: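 Indomethacin and resveratrol served as positive controls while compounds were tested across concentrations on LPS-stimulated (1 μg/ml, 24 h) RAW264.7 cells. NO output was quantified colorimetrically (Griess, 548 nm).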
# [3] = tested on: human embryonic lung fibroblast IMR-90; assay: Anti-fibrosis activity test: inhibition of proliferation of human embryonic lung fibroblast IMR-90 (CCK-8)
# Summary of the method: as §1
# BHK-21 cells = assay: Anti-fibrosis activity test: inhibition of BHK-21 cell proliferation (CCK-8); conditions: Mesocricetus auratus, BHK-21, 48 h
# Summary of the method: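 Proliferation of BHK-21 cells is measured by CCK-8 at 450 nm following 48 h compound exposure at several concentrations. Inhibition is expressed relative to blank control and IC50 is computed from it.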
# [4] = tested on: human hepatic stellate cells LX-2; assay: Anti-fibrosis activity test: inhibition of proliferation of human hepatic stellate cells LX-2 (CCK-8); conditions: Homo sapiens, 48 h
# Summary of the method: as §1
# NF-κB = assay: Immunological activity test: inhibition of NF-κB activity; conditions: initial concentration of 30 μM; a/b isomers given as first/second symbol; read-out: IC50 (μM), inhibitory activity against NF-κB
# Summary of the method: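 Parthenolide as positive control; starting test concentration 30 μM; inhibition of NF-κB activity analysed further to yield IC50.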
# [5] = tested on: human fibrosarcoma cells HT-1080; assay: Anti-fibrosis activity test: inhibition of proliferation of human fibrosarcoma cells HT-1080 (CCK-8); conditions: Homo sapiens, HT-1080, 48 h
# Summary of the method: as §1
# [6] = tested on: cardiac fibroblast RAT-iCell-C002; assay: Anti-fibrosis activity test: inhibition of proliferation of cardiac fibroblast RAT-iCell-C002 (CCK-8); conditions: Cardiac fibroblast, 48 h
# Summary of the method: as §1
# [7] = tested on: human lung fibroblasts HFL1; assay: Anti-fibrosis activity test: inhibition of proliferation of human lung fibroblasts HFL1 (CCK-8); conditions: Homo sapiens, HFL1, 48 h
# Summary of the method: as §1
# [8] = human dermal fibroblasts CCC-ESF-1, CCK-8, 48 hours
# [9] = human embryonic lung fibroblast IMR-90, CCK-8, 48 hours
# [10] = CCK-8, 48 hours after administration
# [11] = human hepatic stellate cells LX-2, CCK-8, 48 hours
# [12] = human fibrosarcoma cells HT-1080, CCK-8, 48 hours
# [13] = cardiac fibroblast RAT-iCell-C002, CCK-8, 48 hours
# [14] = human lung fibroblasts HFL1, CCK-8, 48 hours
# [15] = Homo sapiens, CCC-ESF-1 cells, 48 h, CCK-8
# [16] = Homo sapiens, IMR-90 cells, 48 h, CCK-8
Compound,"IC50 [1, 8]",IC50 [2],"IC50 [3, 9]",IC50 (BHK-21 cells; [10]),"IC50 [4, 11]",IC50 (NF-κB),"IC50 [5, 12]","IC50 [6, 13]","IC50 [7, 14]","IC50 [1, 15]","IC50 [3, 16]","IC50 (BHK-21 cells; 48 h, CCK-8)","IC50 ([4]; LX-2, 48 h, LX-2 cells, CCK-8)","IC50 ([5]; HT-1080 cells, 48 h, CCK-8)","IC50 ([6]; RAT-iCell-C002 cells, CCK-8)","IC50 ([7]; HFL1 cells, 48 h, CCK-8)"
"N#Cc1ccc2c(=O)c3c([nH]c2c1)-c1cccn1C3=O [Compound 512a, 9,10-Dioxo-4,10-dihydro-9H-pyrrolizino[1,2-b]quinoline-6-carbonitrile]",0.05 to 5 mM,1 to 10 µM,0.05 to 5 mM,0.05 to 5 mM,< 0.05 mM,1 to 10 µM,0.05 to 5 mM,0.05 to 5 mM,0.05 to 5 mM,–,–,–,–,–,–,–
"C=CCn1c2c(c(=O)c3ccccc31)C(=O)n1cccc1-2 [Compound 6a, 4-Allyl-9H-pyrrolizino[1,2-b]quinoline-9,10(4H)-dione]",0.05 to 5 mM,1 to 10 µM,0.05 to 5 mM,0.05 to 5 mM,0.05 to 5 mM,1 to 10 µM,< 0.05 mM,0.05 to 5 mM,0.05 to 5 mM,–,–,–,–,–,–,–
"O=C1c2nc3ccccc3c(OCCCN3CCOCC3)c2-c2cccn21 [Compound 787b, 11-(3-morpholinopropoxy)-5H-pyrrolizino[2,1-b]quinolin-5-one]",–,10 to 50 µM,–,–,–,0.1 to 1 µM,–,–,–,0.05 to 5 mM,0.05 to 5 mM,0.05 to 5 mM,0.05 to 5 mM,0.05 to 5 mM,0.05 to 5 mM,0.05 to 5 mM
"O=C1c2c(n(Cc3ccc(Cl)cc3F)c3ccccc3c2=O)-c2cccn21 [Compound 602a, 4-(4-Chloro-2-fluorobenzyl)-9H-pyrrolizino[1,2-b]quinoline-9,10(4H)-dione]",0.05 to 5 mM,1 to 10 µM,0.05 to 5 mM,0.05 to 5 mM,0.05 to 5 mM,1 to 10 µM,0.05 to 5 mM,0.05 to 5 mM,0.05 to 5 mM,–,–,–,–,–,–,–
"O=C1c2c(nc3c(F)cccc3c2OCc2cccc(F)c2)-c2cccn21 [Compound 458b, 5-fluoro-9-((3-fluorobenzyl)oxy)-10H-pyrrolizino[1,2-b]quinolin-10-one]",0.05 to 5 mM,1 to 10 µM,0.05 to 5 mM,0.05 to 5 mM,0.05 to 5 mM,1 to 10 µM,0.05 to 5 mM,0.05 to 5 mM,0.05 to 5 mM,–,–,–,–,–,–,–
"CC(C)(C)COc1c2c(nc3ccccc13)-c1cccn1C2=O [Compound 656b, 9-(neopentyloxy)-10H-pyrrolizino[1,2-b]quinolin-10-one]",0.05 to 5 mM,1 to 10 µM,0.05 to 5 mM,0.05 to 5 mM,0.05 to 5 mM,1 to 10 µM,0.05 to 5 mM,0.05 to 5 mM,0.05 to 5 mM,–,–,–,–,–,–,–
"O=C1c2c(n(Cc3ccc(F)cc3Cl)c3ccccc3c2=O)-c2cccn21 [Compound 572a, 4-(2-Chloro-4-fluorobenzyl)-9H-pyrrolizino[1,2-b]quinoline-9,10(4H)-dione]",0.05 to 5 mM,0.1 to 1 µM,0.05 to 5 mM,0.05 to 5 mM,0.05 to 5 mM,0.001 to 0.1 µM,0.05 to 5 mM,0.05 to 5 mM,0.05 to 5 mM,–,–,–,–,–,–,–
"O=C1c2c(n(Cc3c(Cl)cccc3Cl)c3ccccc3c2=O)-c2cccn21 [Compound 614a, 4-(2,6-Dichlorobenzyl)-9H-pyrrolizino[1,2-b]quinoline-9,10(4H)-dione]",0.05 to 5 mM,10 to 50 µM,0.05 to 5 mM,0.05 to 5 mM,0.05 to 5 mM,1 to 10 µM,< 0.05 mM,0.05 to 5 mM,0.05 to 5 mM,–,–,–,–,–,–,–
"N#Cc1ccccc1COc1c2c(nc3ccccc13)-c1cccn1C2=O [Compound 577b, 2-(((10-oxo-10H-pyrrolizino[1,2-b]quinolin-9-yl)oxy)methyl)benzonitrile]",0.05 to 5 mM,1 to 10 µM,0.05 to 5 mM,0.05 to 5 mM,0.05 to 5 mM,1 to 10 µM,0.05 to 5 mM,0.05 to 5 mM,0.05 to 5 mM,–,–,–,–,–,–,–
"Cn1c2c(c(=O)c3cc(F)ccc31)C(=O)n1cccc1-2 [Compound 157a, 7-Fluoro-4-methyl-9H-pyrrolizino[1,2-b]quinoline-9,10(4H)-dione]",0.05 to 5 mM,0.1 to 1 µM,0.05 to 5 mM,5 to 20 mM,0.05 to 5 mM,10 to 50 µM,0.05 to 5 mM,0.05 to 5 mM,0.05 to 5 mM,–,–,–,–,–,–,–
"O=C(COc1c2c(nc3ccccc13)-c1cccn1C2=O)c1ccc(Cl)cc1 [Compound 90b, 9-(2-(4-chlorophenyl)-2-oxoethoxy)-10H-pyrrolizino[1,2-b]quinolin-10-one]",0.05 to 5 mM,0.1 to 1 µM,0.05 to 5 mM,0.05 to 5 mM,0.05 to 5 mM,1 to 10 µM,5 to 20 mM,0.05 to 5 mM,0.05 to 5 mM,–,–,–,–,–,–,–
"CS(=O)(=O)CCCn1c2c(c(=O)c3ccccc31)C(=O)n1cccc1-2 [Compound 659a, 4-(3-(Methylsulfonyl)propyl)-9H-pyrrolizino[1,2-b]quinoline-9,10(4H)-dione]",0.05 to 5 mM,1 to 10 µM,0.05 to 5 mM,0.05 to 5 mM,0.05 to 5 mM,1 to 10 µM,0.05 to 5 mM,0.05 to 5 mM,0.05 to 5 mM,–,–,–,–,–,–,–
"O=C(Oc1c2c(nc3ccccc13)-c1cccn1C2=O)c1ccco1 [Compound 95b, 10-oxo-10H-pyrrolizino[1,2-b]quinolin-9-ylfuran-2-carboxylate]",0.05 to 5 mM,1 to 10 µM,0.05 to 5 mM,0.05 to 5 mM,< 0.05 mM,1 to 10 µM,0.05 to 5 mM,0.05 to 5 mM,0.05 to 5 mM,–,–,–,–,–,–,–
"O=C1c2c(nc3ccccc3c2OCc2cccc(C(F)(F)F)c2)-c2cccn21 [Compound 598b, 9-((3-(trifluoromethyl)benzyl)oxy)-10H-pyrrolizino[1,2-b]quinolin-10-one]",0.05 to 5 mM,1 to 10 µM,0.05 to 5 mM,0.05 to 5 mM,0.05 to 5 mM,1 to 10 µM,0.05 to 5 mM,0.05 to 5 mM,0.05 to 5 mM,–,–,–,–,–,–,–
"O=C1c2c(nc3ccccc3c2OCc2ccc(Cl)c(Cl)c2)-c2cccn21 [Compound 613b, 9-((3,4-dichlorobenzyl)oxy)-10H-pyrrolizino[1,2-b]quinolin-10-one]",0.05 to 5 mM,10 to 50 µM,0.05 to 5 mM,0.05 to 5 mM,0.05 to 5 mM,1 to 10 µM,0.05 to 5 mM,0.05 to 5 mM,0.05 to 5 mM,–,–,–,–,–,–,–
"O=C1c2c(nc3ccccc3c2OCCF)-c2cccn21 [Compound 653b, 9-(2-fluoroethoxy)-10H-pyrrolizino[1,2-b]quinolin-10-one]",0.05 to 5 mM,1 to 10 µM,0.05 to 5 mM,0.05 to 5 mM,0.05 to 5 mM,1 to 10 µM,0.05 to 5 mM,0.05 to 5 mM,0.05 to 5 mM,–,–,–,–,–,–,–
"O=C1c2c(nc3c(O)cccc3c2O)-c2cccn21 [Compound 445b, 5,9-dihydroxy-10H-pyrrolizino[1,2-b]quinolin-10-one]",0.05 to 5 mM,1 to 10 µM,0.05 to 5 mM,0.05 to 5 mM,0.05 to 5 mM,1 to 10 µM,0.05 to 5 mM,0.05 to 5 mM,0.05 to 5 mM,–,–,–,–,–,–,–
"O=C1c2c(nc3ccccc3c2OCc2ccccc2F)-c2cccn21 [Compound 599b, 9-((2-fluorobenzyl)oxy)-10H-pyrrolizino[1,2-b]quinolin-10-one]",0.05 to 5 mM,1 to 10 µM,0.05 to 5 mM,0.05 to 5 mM,0.05 to 5 mM,1 to 10 µM,0.05 to 5 mM,0.05 to 5 mM,0.05 to 5 mM,–,–,–,–,–,–,–
"Cc1ccc2[nH]c3c(c(=O)c2c1)C(=O)n1cccc1-3 [Compound 696a, 7-Methyl-9H-pyrrolizino[1,2-b]quinoline-9,10(4H)-dione]",–,1 to 10 µM,–,–,–,1 to 10 µM,–,–,–,0.05 to 5 mM,0.05 to 5 mM,0.05 to 5 mM,0.05 to 5 mM,0.05 to 5 mM,0.05 to 5 mM,0.05 to 5 mM
